Patent US11040975B2, “Carbocyclic nucleoside reverse transcriptase inhibitors” (Merck Sharp & Dohme Corp., priority 2017, dated 2021)

Target: T1, HIV-1 RT enzyme (Human immunodeficiency virus type 1 group M subtype B, UniProt P04585)
T1 construct: Full-length wild-type and 2 mutant RT proteins were expressed in Escherichia coli BL21(DE3) cells and purified; made in house; host or cells: Escherichia coli BL21(DE3)
Assay: RT Polymerase Assay
Type: biochemical
Details: not given
Text: The compounds of Formula I, and pharmaceutically acceptable salts thereof, are HIV reverse transcriptase inhibitors. The compounds are useful for inhibiting HIV reverse transcriptase and for inhibiting HIV replication in vitro and in vivo. More particularly, the compounds of Formula I inhibit the polymerase function of HIV-1 reverse transcriptase. The testing of compounds of the Examples of the invention in the assay set forth in the RT Polymerase Assay below, illustrates the ability of compounds of the invention to inhibit the RNA-dependent DNA polymerase activity of HIV-1 reverse transcriptase. The compounds of Formula I may also be useful agents against HIV-2.
Full-length wild-type and 2 mutant RT proteins were expressed in Escherichia coli BL21(DE3) cells and purified. Briefly, the heterodimeric nucleic acid substrate used in the HIV-1 RT polymerase reactions was generated by annealing biotinylated DNA primer to a 500 nucleotide RNA template. The HIV-1 RT enzyme (final concentration of 50 pM) was combined with an inhibitor compound or DMSO (10% DMSO in the final reaction mixture) in assay buffer (62.5 mM Tris-HCl, pH 7.8, 1.25 mM dithiothreitol, 7.5 mM MgCl2, 100 mM KCl, 0.03% CHAPS, 0.125 mM EGTA). This mixture was pre-incubated for 30 minutes at room temperature in microtiter plates. The polymerization reaction was initiated by the addition of template/primer substrate (final concentration: 16.6 nM) and dNTPs (final concentration: 2 μM dCTP, dGTP, dATP, and 66.6 nM Ru-dUTP). After 90 min of incubation at 37° C., reactions were quenched by the addition of EDTA (25 mM). The resulting mixture was incubated for an additional 5 minutes at room temperature followed by transferring the solution (50 μL) to blocked avidin plate from Meso Scale Discovery (MSD). The mixtures were incubated at room temperature for 60 min prior to the quantification of the reaction product via an ECL 6000 imager instrument.

C#CC1(COP(=O)(O)OP(=O)(O)OP(=O)(O)O)CC(n2cnc3c(=O)[nH]c(N)nc32)CC1O (racemic) [Example (+/−) 47, ((1S,2S,4R)-4-(2-amino-6-oxo-1,6-dihydro-9H-purin-9-yl)-1-ethynyl-2-hydroxycyclopentyl)methyl tetrahydrogen triphosphate and ((1R,2R,4S)-4-(2-amino-6-oxo-1,6-dihydro-9H-purin-9-yl)-1-ethynyl-2-hydroxycyclopentyl)methyl tetrahydrogen triphosphate] and N#CC1(COP(=O)(O)OP(=O)(O)OP(=O)(O)O)CC(n2cnc3c(=O)[nH]c(N)nc32)CC1O (racemic) [Example (+/−) 75, ((1S,2S,4R)-4-(2-amino-6-oxo-1,6-dihydro-9H-purin-9-yl)-1-cyano-2-hydroxycyclopentyl)methyl tetrahydrogen triphosphate and ((1R,2R,4S)-4-(2-amino-6-oxo-1,6-dihydro-9H-purin-9-yl)-1-cyano-2-hydroxycyclopentyl)methyl tetrahydrogen triphosphate] are within 1.5-fold of each other in IC50: 324000 pM for the first, 444000 pM for the second.

Going from C#CC1(COP(=O)(O)OP(=O)(O)OP(=O)(O)O)CC(n2cc(C)c(=O)[nH]c2=O)CC1O (racemic) [Example (+/−) 48, ((1S,2S,4R)-1-ethynyl-2-hydroxy-4-(5-methyl-2,4-dioxo-3,4-dihydropyrimidin-1(2H)-yl)cyclopentyl)methyl tetrahydrogen triphosphate and ((1R,2R,4S)-1-ethynyl-2-hydroxy-4-(5-methyl-2,4-dioxo-3,4-dihydropyrimidin-1(2H)-yl)cyclopentyl)methyl tetrahydrogen triphosphate] to Cc1cn(C2CC(O)C(C#N)(COP(=O)(O)OP(=O)(O)OP(=O)(O)O)C2)c(=O)[nH]c1=O (racemic) [Example (+/−) 76, ((1S,2S,4R)-1-cyano-2-hydroxy-4-(5-methyl-2,4-dioxo-3,4-dihydropyrimidin-1(2H)-yl)cyclopentyl)methyl tetrahydrogen triphosphate and ((1R,2R,4S)-1-cyano-2-hydroxy-4-(5-methyl-2,4-dioxo-3,4-dihydropyrimidin-1(2H)-yl)cyclopentyl)methyl tetrahydrogen triphosphate], the IC50 rises from 114000 pM to 523000 pM (4.6-fold).

With C#CC1(COP(=O)(O)OP(=O)(O)OP(=O)(O)O)CC(n2ccc(N)nc2=O)CC1O (racemic) [Example (+/−) 49, ((1S,2S,4R)-4-(4-amino-2-oxopyrimidin-1(2H)-yl)-1-ethynyl-2-hydroxycyclopentyl)methyl tetrahydrogen triphosphate and ((1R,2R,4S)-4-(4-amino-2-oxopyrimidin-1(2H)-yl)-1-ethynyl-2-hydroxycyclopentyl)methyl tetrahydrogen triphosphate] the IC50 was over 1e+08 pM.

Same assay, conditions: HIV-1 RT 50 pM; 90 min at 37° C.; triphosphates tested; read-out: dNTP IC50

Going from “((1S,2S,4R)-4-(2,4-dichloro-7H-pyrrolo[2,3-d]pyrimidin-7-yl)-1-ethynyl-2-hydroxycyclopentyl)methyl tetrahydrogen triphosphate and ((1R,2R,4S)-4-(2,4-dichloro-7H-pyrrolo[2,3-d]pyrimidin-7-yl)-1-ethynyl-2-hydroxycyclopentyl)methyl tetrahydrogen triphosphate [Example (+/−) 45]” to “((1S,2S,4R)-4-(2,6-dichloro-9H-purin-9-yl)-1-ethynyl-2-hydroxycyclopentyl)methyl tetrahydrogen triphosphate and ((1R,2R,4S)-4-(2,6-dichloro-9H-purin-9-yl)-1-ethynyl-2-hydroxycyclopentyl)methyl tetrahydrogen triphosphate [Example (+/−) 43]”, the IC50 rises from 3.38e+07 pM to over 1e+08 pM.

“((1S,2S,4R)-4-(2-amino-6-chloro-9H-purin-9-yl)-1-ethynyl-2-hydroxycyclopentyl)methyl tetrahydrogen triphosphate and ((1R,2R,4S)-4-(2-amino-6-chloro-9H-purin-9-yl)-1-ethynyl-2-hydroxycyclopentyl)methyl tetrahydrogen triphosphate [Example (+/−) 42]” and “((1S,2S,4R)-4-(4-amino-2-chloro-7H-pyrrolo[2,3-d]pyrimidin-7-yl)-1-ethynyl-2-hydroxycyclopentyl)methyl tetrahydrogen triphosphate and ((1R,2R,4S)-4-(4-amino-2-chloro-7H-pyrrolo[2,3-d]pyrimidin-7-yl)-1-ethynyl-2-hydroxycyclopentyl)methyl tetrahydrogen triphosphate [Example (+/−) 46]” are within 1.5-fold of each other in IC50: 1.32e+07 pM for the first, 1.39e+07 pM for the second.

Compared with “((1S,2S,4R)-4-(6-amino-2-chloro-9H-purin-9-yl)-1-ethynyl-2-hydroxycyclopentyl)methyl tetrahydrogen triphosphate and ((1R,2R,4S)-4-(6-amino-2-chloro-9H-purin-9-yl)-1-ethynyl-2-hydroxycyclopentyl)methyl tetrahydrogen triphosphate [Example (+/−) 44]”, “((1S,2S,4R)-4-(6-amino-2-chloro-9H-purin-9-yl)-1-ethynyl-2-hydroxycyclopentyl)methyl tetrahydrogen triphosphate or ((1R,2R,4S)-4-(6-amino-2-chloro-9H-purin-9-yl)-1-ethynyl-2-hydroxycyclopentyl)methyl tetrahydrogen triphosphate [Example 44B]” is 2.2-fold lower in IC50: 2.02e+07 pM for the first, 9.32e+06 pM for the second.

Compared with “((1S,2S,4R)-4-(6-amino-2-fluoro-9H-purin-9-yl)-1-ethynyl-2-hydroxycyclopentyl)methyl tetrahydrogen triphosphate and ((1R,2R,4S)-4-(6-amino-2-fluoro-9H-purin-9-yl)-1-ethynyl-2-hydroxycyclopentyl)methyl tetrahydrogen triphosphate [Example (+/−) 41]”, “((1S,2S,4R)-4-(6-chloro-2-fluoro-9H-purin-9-yl)-1-ethynyl-2-hydroxycyclopentyl)methyl tetrahydrogen triphosphate and ((1R,2R,4S)-4-(6-chloro-2-fluoro-9H-purin-9-yl)-1-ethynyl-2-hydroxycyclopentyl)methyl tetrahydrogen triphosphate [Example (+/−) 40]” is higher in IC50: 3.46e+06 pM for the first, over 1e+08 pM for the second. The first is the more potent here.
